Data: patent publication US6384187B1, “Antiproliferative activity of microsclerodermins” (Harbor Branch Oceanographic Institution, Inc., priority 1999, dated 2002)

System: A549 human lung adenocarcinoma cells
Test: Immunofluorescent detection of effects on the microtubule matrix (anti-alpha-tubulin)
Assay type: cell-based
Protocol: Microsclerodermin compounds were evaluated as to their effects on the microtubule network of A549 human lung adenocarcinoma cells using anti-alpha-tubulin monoclonal antibodies. […] Tests were conducted to determine if the microsclerodermin compounds acted upon the cellular microtubule network in a similar fashion.
On day 1, 7.0×10^4 adherent A549 cells were cultured in TCM overnight at 37° C. in 5% CO2 on 22 mm2 coverslipsin 6-well microtiter plates. On day 2, the TCM was removed and replaced with various concentrations of the microsclerodermin compounds, or discodermolide,in TCM or TCM without drug (control) and incubated for 24 hours at 37° C. in 5% CO2. On day 3, the TCM was removed and the adhered cells were fixed in 3.7% formaldehyde solution in Dulbecco's phosphate-buffered saline (D-PBS) for 10 minutes at room temperature. The cells were then permeabilized in a 2% Triton X-100 solution in D-PBS, 2 ml per well, for 5 minutes at room temperature and washed twice in D-PBS prior to staining.
To each well containing cells attached to coverslips a 2 ml volume of mouse monoclonal anti-alpha-tubulin(Cat#T-5168, Sigma Immuno Chemicals) diluted 1:1000 in D-PBS was added and the cells incubated at room temperature for 45 minutes. The coverslips were rinsed twice with D-PBS. A 2 ml volume of goat-anti-mouse-IgG-FITC conjugate (Cat#T-5262, Sigma Immuno Chemicals) diluted at 1:1000 in D-PBS was added and the cells incubated at room temperature for 45 minutes. Coverslips were rinsed twice in D-PBS and incubated for 30 minutes at 37° C. with 1 ml/well of propidium iodide ([…]) and ribonuclease A ([…]) in D-PBS. The cover slips were rinsed three times with sterile distilled water, mounted on slides, and observed under the microscope using epifluorescence illumination for the presence of abnormal aster and microtubule bundle formation.

[1] = treated cells, concentration not given, reference agents

Molecule	abnormal aster and microtubule bundle formation [1]	abnormal aster and microtubule bundle formation (A549 cells, 5 μg/ml, 24 hours)	cell number compared with control cultures (A549 cells, 5 μg/ml, 24 hours)	cells undergoing mitosis (A549 cells, 5 μg/ml, 24 hours)	alpha-tubulin antibody staining of the microtubule matrix (A549 cells, 5 μg/ml, 24 hours, seen in some cells)
CC(=O)O[C@H]1C(=O)[C@@]2(C)[C@H]([C@H](OC(=O)c3ccccc3)[C@]3(O)C[C@H](OC(=O)[C@H](O)[C@@H](NC(=O)c4ccccc4)c4ccccc4)C(C)=C1C3(C)C)[C@]1(OC(C)=O)CO[C@@H]1C[C@@H]2O [paclitaxel, reference compound]	abnormal formation of multiple centriolar-radiating microtubules with extensive clusters of associated microtubular “bundles”	–	–	–	–
microsclerodermin F	–	nor was there any microtubule bundling or cells with multiple asters	fewer cells than in control cultures	No cells in the culture were found to be undergoing mitosis	completely disassembled structure with a near uniform distribution throughout the cytoplasm
C=C/C=C\[C@H](C)[C@H](OC(N)=O)[C@@H](C)[C@H](O)[C@@H](C)C/C(C)=C\[C@H](C)[C@@H](O)[C@@H](C)/C=C\[C@@H](O)C[C@@H]1OC(=O)[C@H](C)[C@@H](O)[C@H]1C [discodermolide, reference compound]	abnormal formation of multiple centriolar-radiating microtubules with extensive clusters of associated microtubular “bundles”	–	–	–	–
